Test results: PubChem BioAssay (NCI)
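Exposure lasted 48 hours, with cells grown in 96-well plates and compounds tested at five concentrations. At the GI50, growth is halved. TGI marks complete inhibition of growth.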

How the values were obtained:
Assay in all cases: NCI anticancer screen, dose series, 48 h
SNB-19 CNS = tested on: SNB-19 CNS
K-562 leukemia = tested on: K-562 leukemia
KM12 colon = tested on: KM12 colon
M14 melanoma = tested on: M14 melanoma
OVCAR-3 ovarian = tested on: OVCAR-3 ovarian
BT-549 breast = tested on: BT-549 breast
A549 NSCLC = tested on: A549 NSCLC
TK-10 renal = tested on: TK-10 renal
A498 renal = tested on: A498 renal
NCI-H23 lung = tested on: NCI-H23 lung
CAKI-1 renal = tested on: CAKI-1 renal
OVCAR-5 ovarian = tested on: OVCAR-5 ovarian
NCI/ADR-RES ovarian = tested on: NCI/ADR-RES ovarian
HCT-116 colon = tested on: HCT-116 colon
NCI-H226 lung = tested on: NCI-H226 lung
HCC-2998 colon = tested on: HCC-2998 colon
DU-145 prostate = tested on: DU-145 prostate
RPMI-8226 leukemia = tested on: RPMI-8226 leukemia
IGROV1 ovarian = tested on: IGROV1 ovarian
HT29 colon = tested on: HT29 colon
MDA-MB-468 breast = tested on: MDA-MB-468 breast
NCI-H460 lung = tested on: NCI-H460 lung
OVCAR-8 ovarian = tested on: OVCAR-8 ovarian
SW-620 colon = tested on: SW-620 colon
SK-MEL-28 melanoma = tested on: SK-MEL-28 melanoma
SN12C renal = tested on: SN12C renal
UACC-62 melanoma = tested on: UACC-62 melanoma
U251 CNS = tested on: U251 CNS
HL-60(TB) leukemia = tested on: HL-60(TB) leukemia
CCRF-CEM leukemia = tested on: CCRF-CEM leukemia
HOP-92 NSCLC = tested on: HOP-92 NSCLC
HCT-15 colon = tested on: HCT-15 colon
ACHN renal = tested on: ACHN renal
SF-268 CNS = tested on: SF-268 CNS
HOP-62 NSCLC = tested on: HOP-62 NSCLC
SK-MEL-5 melanoma = tested on: SK-MEL-5 melanoma
SF-295 CNS = tested on: SF-295 CNS
MALME-3M melanoma = tested on: MALME-3M melanoma
COLO 205 colon = tested on: COLO 205 colon
MCF7 breast = tested on: MCF7 breast
EKVX NSCLC = tested on: EKVX NSCLC
OVCAR-4 ovarian = tested on: OVCAR-4 ovarian
SK-OV-3 ovarian = tested on: SK-OV-3 ovarian
UACC-257 melanoma = tested on: UACC-257 melanoma
786-0 renal = tested on: 786-0 renal
T-47D breast = tested on: T-47D breast
MOLT-4 leukemia = tested on: MOLT-4 leukemia
LOX IMVI melanoma = tested on: LOX IMVI melanoma
SR leukemia = tested on: SR leukemia
RXF 393 renal = tested on: RXF 393 renal
PC-3 prostate = tested on: PC-3 prostate
HS 578T breast = tested on: HS 578T breast
NCI-H522 lung = tested on: NCI-H522 lung

CC(=O)Nc1ccc(-n2cnc3cc(-c4ccc(O)cc4)ccc32)cc1F
GI50 (SNB-19 CNS): 4.73 µM
TGI (SNB-19 CNS): > 100 µM
GI50 (K-562 leukemia): 0.496 µM
TGI (K-562 leukemia): > 100 µM
GI50 (KM12 colon): 3.22 µM
TGI (KM12 colon): > 100 µM
GI50 (M14 melanoma): 3.39 µM
TGI (M14 melanoma): > 100 µM
GI50 (OVCAR-3 ovarian): 3.06 µM
TGI (OVCAR-3 ovarian): > 100 µM
GI50 (BT-549 breast): 27 µM
TGI (BT-549 breast): > 100 µM
GI50 (A549 NSCLC): 4.77 µM
TGI (A549 NSCLC): > 100 µM
GI50 (TK-10 renal): 49.5 µM
TGI (TK-10 renal): > 100 µM
GI50 (A498 renal): > 100 µM
TGI (A498 renal): > 100 µM
GI50 (NCI-H23 lung): 4.77 µM
TGI (NCI-H23 lung): > 100 µM
GI50 (CAKI-1 renal): > 100 µM
TGI (CAKI-1 renal): > 100 µM
GI50 (OVCAR-5 ovarian): 6.22 µM
TGI (OVCAR-5 ovarian): > 100 µM
GI50 (NCI/ADR-RES ovarian): 2.78 µM
TGI (NCI/ADR-RES ovarian): > 100 µM
GI50 (HCT-116 colon): 4.21 µM
TGI (HCT-116 colon): > 100 µM
GI50 (NCI-H226 lung): 83.2 µM
TGI (NCI-H226 lung): > 100 µM
GI50 (HCC-2998 colon): 5.6 µM
TGI (HCC-2998 colon): > 100 µM
GI50 (DU-145 prostate): 4.33 µM
TGI (DU-145 prostate): > 100 µM
GI50 (RPMI-8226 leukemia): 3.32 µM
TGI (RPMI-8226 leukemia): 16.4 µM
GI50 (IGROV1 ovarian): 6.21 µM
TGI (IGROV1 ovarian): > 100 µM
GI50 (HT29 colon): 3.86 µM
TGI (HT29 colon): > 100 µM
GI50 (MDA-MB-468 breast): 1.25 µM
TGI (MDA-MB-468 breast): 4.68 µM
GI50 (NCI-H460 lung): 3.38 µM
TGI (NCI-H460 lung): > 100 µM
GI50 (OVCAR-8 ovarian): 3.48 µM
TGI (OVCAR-8 ovarian): > 100 µM
GI50 (SW-620 colon): 3.01 µM
TGI (SW-620 colon): > 100 µM
GI50 (SK-MEL-28 melanoma): 29.7 µM
TGI (SK-MEL-28 melanoma): > 100 µM
GI50 (SN12C renal): 5.8 µM
TGI (SN12C renal): > 100 µM
GI50 (UACC-62 melanoma): 2.55 µM
TGI (UACC-62 melanoma): > 100 µM
GI50 (U251 CNS): 3.19 µM
TGI (U251 CNS): > 100 µM
GI50 (HL-60(TB) leukemia): 1.23 µM
TGI (HL-60(TB) leukemia): 3.85 µM
GI50 (CCRF-CEM leukemia): 3.01 µM
TGI (CCRF-CEM leukemia): > 100 µM
GI50 (HOP-92 NSCLC): 23.2 µM
TGI (HOP-92 NSCLC): > 100 µM
GI50 (HCT-15 colon): 0.831 µM
TGI (HCT-15 colon): > 100 µM
GI50 (ACHN renal): 6.33 µM
TGI (ACHN renal): > 100 µM
GI50 (SF-268 CNS): 9.66 µM
TGI (SF-268 CNS): > 100 µM
GI50 (HOP-62 NSCLC): 4.53 µM
TGI (HOP-62 NSCLC): > 100 µM
GI50 (SK-MEL-5 melanoma): 4.09 µM
TGI (SK-MEL-5 melanoma): > 100 µM
GI50 (SF-295 CNS): 3.34 µM
TGI (SF-295 CNS): > 100 µM
GI50 (MALME-3M melanoma): 3.35 µM
TGI (MALME-3M melanoma): > 100 µM
GI50 (COLO 205 colon): 3.47 µM
TGI (COLO 205 colon): > 100 µM
GI50 (MCF7 breast): 2.45 µM
TGI (MCF7 breast): > 100 µM
GI50 (EKVX NSCLC): 6.04 µM
TGI (EKVX NSCLC): > 100 µM
GI50 (OVCAR-4 ovarian): > 100 µM
TGI (OVCAR-4 ovarian): > 100 µM
GI50 (SK-OV-3 ovarian): 5.05 µM
TGI (SK-OV-3 ovarian): > 100 µM
GI50 (UACC-257 melanoma): 21.5 µM
TGI (UACC-257 melanoma): > 100 µM
GI50 (786-0 renal): 6.8 µM
TGI (786-0 renal): > 100 µM
GI50 (T-47D breast): 4.02 µM
TGI (T-47D breast): > 100 µM
GI50 (MOLT-4 leukemia): 2.67 µM
TGI (MOLT-4 leukemia): > 100 µM
GI50 (LOX IMVI melanoma): 6.43 µM
TGI (LOX IMVI melanoma): > 100 µM
GI50 (SR leukemia): 0.377 µM
TGI (SR leukemia): 27 µM
GI50 (RXF 393 renal): 1.94 µM
TGI (RXF 393 renal): 6.14 µM
GI50 (PC-3 prostate): 3.66 µM
TGI (PC-3 prostate): > 100 µM
GI50 (HS 578T breast): 2.61 µM
TGI (HS 578T breast): > 100 µM
GI50 (NCI-H522 lung): 1.63 µM
TGI (NCI-H522 lung): 4.14 µM
